The values below come from patent publication US20020115104A1, “MMSC2 - an MMAC1 interacting protein” (priority 1998, published 2002).

*: point of attachment. Biotin = O=C1N[C@H]2[C@H](CS[C@H]2CCCCC(=O)*)N1

The target of test [1] is T1, MMSC2 PDZ domain 11 (P2) (Homo sapiens, UniProt O75970).
T1 construct: 1691-1772; made in house; host or cells: E. coli
T1 sequence (O75970 1691-1772 isoform O75970-3): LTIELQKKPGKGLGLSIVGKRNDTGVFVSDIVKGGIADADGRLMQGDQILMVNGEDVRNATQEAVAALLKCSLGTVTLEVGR
Kind of test: PDZ binding assay (ELISA), PDZ domain 11. The following applies: immobilized GST-PDZ domain 11 (P2); biotinylated peptide pre-bound to streptavidin-alkaline phosphatase; colorimetric phosphatase assay. From the text:
(§1) cDNAs encoding each of the MMSC2 PDZ domains (amino acid residues identified in Table 1), and any desired control proteins, were generated by PCR and subcloned as glutathione S-transferase (GST) fusions in pGEX vectors (Pharmacia). After sequencing to confirm expression construct integrity, the resulting clones were expressed in E. coli and the desired fusion proteins isolated with glutathione-agarose and recovered with glutathione elution. These fusion proteins or control proteins were then adsorbed to different wells of a 96-well ELISA plate and remaining sites blocked with BSA. Synthetic commercially synthesized peptides encoding the desired PDZ-binding domain (i.e., the 16 C-terminal amino acids of MMAC1, or the C-terminal peptide sequences of interacting proteins identified by the approach of Example 2, or the C-terminal peptide sequences identified by the approach of Example 3), or a control peptide, and biotinylated at the amino-terminus, were pre-bound to streptavidin-alkaline phosphatase in a 4:1 molar ratio. […] Bound peptide/streptavidin-alkaline phosphatase complex was then quantitated by a colorimetric phosphatase assay read on a 96-well plate reader. […]
(§2) The relative affinity of each of the 13 PDZ domains encoded by MMSC2 for an MMAC1 C-terminal PDZ peptide as measured by an ELISA assay is set forth in Table 2.
(In general: ELISA stands for enzyme-linked immunosorbent assay.)

Test [2] has as its target T2, MMSC2 PDZ domain 8 (P8) (Homo sapiens, UniProt O75970).
T2 construct: 1316-1398; made in house; host or cells: E. coli
T2 sequence (O75970 1316-1398 isoform O75970-3): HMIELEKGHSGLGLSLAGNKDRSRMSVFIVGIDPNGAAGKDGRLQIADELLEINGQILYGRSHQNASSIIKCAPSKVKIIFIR
Kind of test: PDZ binding assay (ELISA), PDZ domain 8. The note with it: immobilized GST-PDZ domain 8 (P8); biotinylated peptide pre-bound to streptavidin-alkaline phosphatase; colorimetric phosphatase assay.
Excerpt: as §1, §2

Test [3] has as its target T3, MMSC2 PDZ domain 13 (P4) (Homo sapiens, UniProt O75970).
T3 construct: 1953-2037; made in house; host or cells: E. coli
T3 sequence (O75970 1953-2037 isoform O75970-3): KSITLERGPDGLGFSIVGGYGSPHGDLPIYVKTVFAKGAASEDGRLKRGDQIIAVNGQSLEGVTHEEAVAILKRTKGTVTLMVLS
Kind of test: PDZ binding assay (ELISA), PDZ domain 13. The note with it: for A405: immobilized GST-PDZ domain 13 (P4), biotinylated peptide pre-bound to streptavidin-alkaline phosphatase, colorimetric phosphatase assay.
Excerpt: (§3) cDNAs encoding each of the MMSC2 PDZ domains (amino acid residues identified in Table 1), and any desired control proteins, were generated by PCR and subcloned as glutathione S-transferase (GST) fusions in pGEX vectors (Pharmacia). After sequencing to confirm expression construct integrity, the resulting clones were expressed in E. coli and the desired fusion proteins isolated with glutathione-agarose and recovered with glutathione elution. These fusion proteins or control proteins were then adsorbed to different wells of a 96-well ELISA plate and remaining sites blocked with BSA. Synthetic commercially synthesized peptides encoding the desired PDZ-binding domain (i.e., the 16 C-terminal amino acids of MMAC1, or the C-terminal peptide sequences of interacting proteins identified by the approach of Example 2, or the C-terminal peptide sequences identified by the approach of Example 3), or a control peptide, and biotinylated at the amino-terminus, were pre-bound to streptavidin-alkaline phosphatase in a 4:1 molar ratio. The biotinylated peptide streptavidin-alkaline phosphatase complexes were then blocked with free biotin. These pre-bound peptide streptavidin-alkaline phosphatase complexes were then incubated with the immobilized PDZ domains in wash buffer containing PBS, BSA and triton-X100. Unbound material was removed with repeated washes. Bound peptide/streptavidin-alkaline phosphatase complex was then quantitated by a colorimetric phosphatase assay read on a 96-well plate reader. The following peptides were used in the initial study:
as §2

Test [4] has as its target T4, MMSC2 PDZ domain 4 (P10) (Homo sapiens, UniProt O75970).
T4 construct: 555-632; made in house; host or cells: E. coli
T4 sequence (O75970 555-632 isoform O75970-3): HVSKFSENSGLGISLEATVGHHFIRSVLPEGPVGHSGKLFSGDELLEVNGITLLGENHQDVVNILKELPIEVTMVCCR
Put plainly: PDZ binding assay (ELISA), PDZ domain 4. The note with it: immobilized GST-PDZ domain 4 (P10); biotinylated peptide pre-bound to streptavidin-alkaline phosphatase; colorimetric phosphatase assay.
Excerpt: as §1, §2

The target in test [5] is T5, MMSC2 PDZ domain 1 (P15) (Homo sapiens, UniProt O75970).
T5 construct: 136-222; made in house; host or cells: E. coli
T5 sequence (O75970 136-222 isoform O75970-3): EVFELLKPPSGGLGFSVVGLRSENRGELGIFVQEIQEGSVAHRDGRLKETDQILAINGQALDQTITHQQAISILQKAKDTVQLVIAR
Kind of test: PDZ binding assay (ELISA), PDZ domain 1. The following applies: immobilized GST-PDZ domain 1 (P15); biotinylated peptide pre-bound to streptavidin-alkaline phosphatase; colorimetric phosphatase assay.
Excerpt: as §1, §2

Test [6] deals with T6, MMSC2 PDZ domain 6 (P11) (Homo sapiens, UniProt O75970).
T6 construct: 1007-1090; made in house; host or cells: E. coli
T6 sequence (O75970 1007-1090 isoform O75970-3): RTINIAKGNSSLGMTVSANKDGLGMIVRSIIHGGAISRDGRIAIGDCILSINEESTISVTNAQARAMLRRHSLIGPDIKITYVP
Put plainly: PDZ binding assay (ELISA), PDZ domain 6. The note with it: immobilized GST-PDZ domain 6 (P11); biotinylated peptide pre-bound to streptavidin-alkaline phosphatase; colorimetric phosphatase assay.
Excerpt: as §1, §2

For test [7], the target named is T7, MMSC2 PDZ domain 2 (P14) (Homo sapiens, UniProt O75970).
T7 construct: 256-335; made in house; host or cells: E. coli
T7 sequence (O75970 256-335 isoform O75970-3): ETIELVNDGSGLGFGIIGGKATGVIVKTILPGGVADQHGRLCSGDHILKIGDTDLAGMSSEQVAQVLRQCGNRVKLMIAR
Kind of test: PDZ binding assay (ELISA), PDZ domain 2. The note with it: immobilized GST-PDZ domain 2 (P14); biotinylated peptide pre-bound to streptavidin-alkaline phosphatase; colorimetric phosphatase assay.
Excerpt: as §1, §2

Test [8] addresses T8, MMSC2 PDZ domain 7 (P9) (Homo sapiens, UniProt O75970).
T8 construct: 1150-1241; made in house; host or cells: E. coli
T8 sequence (O75970 1150-1241 isoform O75970-3): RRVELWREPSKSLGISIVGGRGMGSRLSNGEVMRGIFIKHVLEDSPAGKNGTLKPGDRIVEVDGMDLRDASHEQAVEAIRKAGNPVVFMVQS
Put plainly: PDZ binding assay (ELISA), PDZ domain 7. The following applies: for A405: immobilized GST-PDZ domain 7 (P9), biotinylated peptide pre-bound to streptavidin-alkaline phosphatase, colorimetric phosphatase assay.
Excerpt: as §3, §2

For test [9], the target named is T9, MMSC2 PDZ domain 5 (P12) (Homo sapiens, UniProt O75970).
T9 construct: 699-785; made in house; host or cells: E. coli
T9 sequence (O75970 699-785 isoform O75970-3): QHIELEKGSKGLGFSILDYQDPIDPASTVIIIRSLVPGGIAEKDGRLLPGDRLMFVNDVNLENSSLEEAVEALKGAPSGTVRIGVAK
Kind of test: PDZ binding assay (ELISA), PDZ domain 5. The following applies: immobilized GST-PDZ domain 5 (P12); biotinylated peptide pre-bound to streptavidin-alkaline phosphatase; colorimetric phosphatase assay.
Excerpt: as §1, §2

Test [10] concerns the target T10, MMSC2 PDZ domain 12 (P3) (Homo sapiens, UniProt O75970).
T10 construct: 1828-1913; made in house; host or cells: E. coli
T10 sequence (O75970 1828-1913 isoform O75970-3): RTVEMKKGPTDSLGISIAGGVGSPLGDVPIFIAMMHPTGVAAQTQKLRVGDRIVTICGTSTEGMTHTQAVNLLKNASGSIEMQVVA
Put plainly: PDZ binding assay (ELISA), PDZ domain 12. The note with it: immobilized GST-PDZ domain 12 (P3); biotinylated peptide pre-bound to streptavidin-alkaline phosphatase; colorimetric phosphatase assay.
Excerpt: as §1, §2

Test [11] deals with T11, MMSC2 PDZ domain 9 (P7) (Homo sapiens, UniProt O75970).
T11 construct: 1439-1529; made in house; host or cells: E. coli
T11 sequence (O75970 1439-1529 isoform O75970-3): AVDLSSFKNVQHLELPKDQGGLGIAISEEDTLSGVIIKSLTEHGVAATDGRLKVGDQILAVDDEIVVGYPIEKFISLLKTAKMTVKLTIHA
Put plainly: PDZ binding assay (ELISA), PDZ domain 9. The note with it: immobilized GST-PDZ domain 9 (P7); biotinylated peptide pre-bound to streptavidin-alkaline phosphatase; colorimetric phosphatase assay.
Excerpt: as §1, §2

Test [12] addresses T12, MMSC2 PDZ domain 10 (P1) (Homo sapiens, UniProt O75970).
T12 construct: 1595-1677; made in house; host or cells: E. coli
T12 sequence (O75970 1595-1677 isoform O75970-3): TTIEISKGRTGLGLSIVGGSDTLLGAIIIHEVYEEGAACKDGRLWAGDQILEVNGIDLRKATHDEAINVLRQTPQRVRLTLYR
Kind of test: PDZ binding assay (ELISA), PDZ domain 10. The note with it: for A405: immobilized GST-PDZ domain 10 (P1), biotinylated peptide pre-bound to streptavidin-alkaline phosphatase, colorimetric phosphatase assay.
Excerpt: as §3, §2

Test [13] concerns the target T13, MMSC2 PDZ domain 3 (P13) (Homo sapiens, UniProt O75970).
T13 construct: 376-461; made in house; host or cells: E. coli
T13 sequence (O75970 376-461 isoform O75970-3): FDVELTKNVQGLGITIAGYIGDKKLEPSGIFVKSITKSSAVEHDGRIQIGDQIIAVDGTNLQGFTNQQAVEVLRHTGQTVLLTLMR
Put plainly: PDZ binding assay (ELISA), PDZ domain 3. The following applies: immobilized GST-PDZ domain 3 (P13); biotinylated peptide pre-bound to streptavidin-alkaline phosphatase; colorimetric phosphatase assay.
Excerpt: as §1, §2

Regarding Biotin-ENEPFDEDQHTQITKV-OH [MMAC1], the A405 worked out at 0.012 in test [1]; 0.006 in [2]; 0.456 in test [3]; 0.024 in [4]; 0.011 in test [5]; 0.016 in [6]. Further, the A405 in [7] was determined as 0.001; in test [8], 0.667; in test [9], 0.000; in test [10] it was 0.003; in test [11] it was 0.017; in test [12], 0.174. The same substance had an A405 in test [13] of 0.006. The “interaction of PDZ domain with MMAC1 (in words)” value in test [3] (PDZ domain number 13) was “interact”; in test [8] (PDZ domain number 7, 7 appearing stronger), “interact”; in test [12] (PDZ domain number 10) it was “interact”.

Regarding “Biotin-SGSGILAPPVPPRNTR-OH [SH3, reference compound]”, the A405 in test [1] was 0.009; in [2], 0.008; in [3], 0.006; in [4], 0.010; in test [5], 0.007; in [6], 0.017. Also, the A405 in [7] is given as 0.006; in test [8], 0.006; in [9], 0.005; in test [10] it was 0.011; in test [11] it was 0.009; in test [12], 0.002. Moreover, the A405 in [13] was 0.008.
